This passage reports Ki results from BindingDB's records for doi:10.1021/jm00157a018 (1987).

SMILES strings stand for the structures. Residues, ends and D or L forms follow the SMILES beside them. *: point of attachment. X2 = O=C(N/N=C1/CC[C@@]2(O)[C@H]3Cc4ccc(O)c5c4[C@@]2(CCN3CC2CC2)[C@H]1O5)*; X1 = CN1CC[C@]23c4c5ccc(O)c4O[C@H]2/C(=N\NC(=O)*)CC[C@@]3(O)[C@H]1C5

Mu-type opioid receptor, sequence (P97266 whole entry): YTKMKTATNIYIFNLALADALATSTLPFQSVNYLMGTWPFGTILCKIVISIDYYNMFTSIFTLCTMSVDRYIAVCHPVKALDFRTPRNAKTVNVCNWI

Molecular target in one assay: not listed separately
In words: Binding affinity against Opioid receptor delta 1 of guinea pig brain membranes using 1 nM of [3H]DADLE as radioligand.
The Ki is the dissociation constant of the complex between target and ligand, obtained from inhibition or displacement. For `CC(C)CC(NC(=O)C(Cc1ccccc1)NC(=O)NN=C1CC[C@@]2(O)C3Cc4ccc(O)c5c4C2(CCN3C)[C@H]1O5)C(=O)O` (stereo partly drawn), the Ki was 6.5 nM. That is a single-digit nanomolar value.

`CC[C@H](C)[C@H](NC(=O)[C@H](CCCN=C(N)N)NC(=O)[C@H](CCCN=C(N)N)NC(=O)[C@H](CC(C)C)NC(=O)[C@H](Cc1ccccc1)NC(=O)N/N=C1/CC[C@@]2(O)[C@H]3Cc4ccc(O)c5c4[C@@]2(CCN3CC2CC2)[C@H]1O5)C(=O)OC` (X2-FLRRI-OMe) had a Ki of 5.7 nM.

`CC(C)CC(NC(=O)C(Cc1ccccc1)NC(=O)NN=C1CC[C@@]2(O)C3Cc4ccc(O)c5c4C2(CCN3CC2CC2)[C@H]1O5)C(=O)O` (stereo partly drawn): affinity was put at a Ki of 3.1 nM.

In turn, `NC(=O)NN=C1CC[C@@]2(O)C3Cc4ccc(O)c5c4C2(CCN3CC2CC2)[C@H]1O5` (stereo partly drawn) came in with a Ki of 3.7 nM.

`CN1CCC23c4c5ccc(O)c4O[C@H]2C(=NNC(N)=O)CC[C@@]3(O)C1C5` (stereo partly drawn): the Ki amounted to 69 nM.

The compound `CC[C@H](C)[C@H](NC(=O)[C@H](CCCNC(=N)N)NC(=O)[C@H](CCCNC(=N)N)NC(=O)[C@H](CC(C)C)NC(=O)[C@H](Cc1ccccc1)NC(=O)CNC(=O)CNC(=O)[C@@H](N)Cc1ccc(O)cc1)C(=O)OC` had a Ki of 50 nM.

Turning to `CC[C@H](C)[C@H](NC(=O)[C@H](CCCN=C(N)N)NC(=O)[C@H](CCCN=C(N)N)NC(=O)[C@H](CC(C)C)NC(=O)[C@H](Cc1ccccc1)NC(=O)N/N=C1/CC[C@@]2(O)[C@H]3Cc4ccc(O)c5c4[C@@]2(CCN3C)[C@H]1O5)C(=O)OC` (X1-FLRRI-OMe), the affinity, expressed as Ki, was 24 nM.

A further assay has as its target Mu-type opioid receptor (Cavia porcellus, UniProt P97266). In words: ChEBML_145291.
Compound `CN1CCC23c4c5ccc(O)c4O[C@H]2C(=NNC(N)=O)CC[C@@]3(O)C1C5` (stereo partly drawn) showed a Ki of 15 nM.
